# Legend:
# [1] = test system: rabbit anti-PIF polyclonal antibody; experiment: PIF colorimetric ELISA using rabbit polyclonal antibody, epitope mapping with PIF peptides of various length; format: binding; conditions: for recovery by PIF colorimetric ELISA using rabbit polyclonal antibody: Table 3, spike concentration not given; for % recovery by Rabbit Polyclonal Antibody: representative value of three repeats
# Protocol: (§1) To study PIF peptide and its derivatives of different length for binding to rabbit anti-PIF monoclonal antibody and rabbit anti-PIF polyclonal antibody, PIF peptides of various lengths as listed in Table 2 was synthesized, reconstituted in PBS and two different concentrations were tested by respective colorimetric ELISA following standard protocol. The standards were run in duplicate and the samples were run in triplicate and repeated three times.
# [2] = test system: rabbit anti-PIF monoclonal antibody; experiment: PIF colorimetric ELISA using rabbit anti-PIF monoclonal antibody, epitope mapping with PIF peptides of various length; format: binding; conditions: for % Recovery by Rabbit Monoclonal Antibody: representative value of three repeats
# Protocol: as §1
Substance,recovery by PIF colorimetric ELISA using rabbit polyclonal antibody [1],% recovery by Rabbit Polyclonal Antibody ([1]; spike concentration 100 ng/ml),% recovery by Rabbit Polyclonal Antibody ([1]; spike concentration 200 ng/ml),% Recovery by Rabbit Monoclonal Antibody ([2]; spike concentration 100 ng/ml),% Recovery by Rabbit Monoclonal Antibody ([2]; spike concentration 200 ng/ml),"recovery by PIF colorimetric ELISA using rabbit anti-PIF monoclonal antibody ([2]; Table 3, spike concentration not given)"
"P1-13: PIF peptide, amino acid locations 1-13 (M V R I K P G S A N K P S) (MVRIKPGSANKPS) [Clone P1-13]",about 40%,49.8%,31.1%,0%,0%,
"P5-10: PIF peptide, amino acid locations 5-10 (K P G S A N) (KPGSAN) [Clone P5-10]",,0%,0%,0%,0%,
"P8-13: PIF peptide, amino acid locations 8-13 (S A N K P S) (SANKPS) [Clone P8-13]",,0%,0%,0%,0%,
"P10-15: PIF peptide, amino acid locations 10-15 (N K P S D D) (NKPSDD) [Clone P10-15]",,0%,0%,0%,0%,
"P1-14: PIF peptide, amino acid locations 1-14 (M V R I K P G S A N K P S D) (MVRIKPGSANKPSD) [Clone P1-14]",about 40%,44.6%,30.0%,3.8%,3.8%,about 3.8%
"P1-7: PIF peptide, amino acid locations 1-7 (M V R I K P G) (MVRIKPG) [Clone P1-7]",,0%,0%,0%,0%,
